Source: patent US5602230A, “Peptide inhibitors of selectin binding” (Centocor, Inc., priority 1995, dated 1997)
Where no end group is shown, it is not given here. The star is where a group is joined. Nif = α,α,α-trifluoro-m-toluidino-nicotinyl, O=C(c1cccnc1Nc1cccc(C(F)(F)F)c1)*

Biological target: T1, purified human P-selectin (Homo sapiens, UniProt P16109)
T1 construct: P-selectin is isolated from human platelet lysates; from tissue; host or cells: outdated human platelet packs (platelet lysates)
T1 sequence (P16109 42-830): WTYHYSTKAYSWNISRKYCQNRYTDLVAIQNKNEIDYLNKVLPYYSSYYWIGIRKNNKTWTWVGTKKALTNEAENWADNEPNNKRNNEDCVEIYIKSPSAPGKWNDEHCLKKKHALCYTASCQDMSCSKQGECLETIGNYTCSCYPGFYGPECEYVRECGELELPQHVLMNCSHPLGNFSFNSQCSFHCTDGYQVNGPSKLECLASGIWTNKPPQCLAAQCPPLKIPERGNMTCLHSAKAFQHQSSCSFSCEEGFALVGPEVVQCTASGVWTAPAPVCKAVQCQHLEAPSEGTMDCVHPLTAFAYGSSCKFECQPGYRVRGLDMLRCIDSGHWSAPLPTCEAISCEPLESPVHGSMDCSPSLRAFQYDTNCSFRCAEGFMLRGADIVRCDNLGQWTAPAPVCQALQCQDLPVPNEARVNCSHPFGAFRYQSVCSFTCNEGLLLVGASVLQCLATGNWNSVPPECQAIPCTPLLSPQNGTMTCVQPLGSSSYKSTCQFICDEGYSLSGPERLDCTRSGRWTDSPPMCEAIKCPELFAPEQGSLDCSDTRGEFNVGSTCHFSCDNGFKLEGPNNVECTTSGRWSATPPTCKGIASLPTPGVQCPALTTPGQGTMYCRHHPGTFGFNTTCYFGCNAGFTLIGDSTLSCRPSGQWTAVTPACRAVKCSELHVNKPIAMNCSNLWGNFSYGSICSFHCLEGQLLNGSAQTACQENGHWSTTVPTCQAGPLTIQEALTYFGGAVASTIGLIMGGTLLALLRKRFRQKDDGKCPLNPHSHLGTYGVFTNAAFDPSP
Assay: Neutrophil adhesion to purified P-selectin immobilized on plastic wells
Type: cell-based
Settings: result in words
Source text: Peptides can be screened for their ability to inhibit adhesion to cells, for example, neutrophil adhesion to purified P-selectin immobilized on plastic wells, using the assay described by Geng, et al., Nature 343, 757-760 (1990).
Human neutrophils are isolated from heparinized whole blood by density gradient centrifugation on Mono-Poly resolving media, Flow Laboratories. Neutrophil suspensions are greater than 98% pure and greater than 95% viable by trypan blue exclusion. For adhesion assays, neutrophils are suspended at a concentration of 2×10^6 cells/mL in Hanks' balanced salt solution containing 1.26 mM Ca^2+ and 0.81 mM Mg^2+ (HBSS, Gibco) with […] human serum albumin (HBSS/HSA). Adhesion assays are conducted in triplicate in 96-well microtiter plates, Corning, incubated at 4° C. overnight with 50 microliters of various protein solutions.
P-selectin is isolated from human platelet lysates by immunoaffinity chromatography on antibody S12-Sepharose™ and ion-exchange chromatography on a Mono-Q™ column (FLPC, Pharmacia Fine Chemicals), as follows. […]
Bound P-selectin is eluted from the S12 Affigel with 100 mL of 80% ethylene glycol, 1 mM MES pH 6.0, 0.01% Lubrol PX. Peak fractions with absorbance at 280 nm are pooled. […]

| Substance | inhibit the adhesion of human neutrophils to purified human P-selectin (FIG. I) |
| --- | --- |
| YTDLVAI-NH2 [SEQ ID NO: 4, Tyr-Thr-Asp-Leu-Val-Ala-Ile-NH2] | inhibit the adhesion |
| SEQ ID NO: 10: peptide of Formula I shown in FIG. I; its sequence is not printed in the text (Nif-TDLVAIQ-NH2) | inhibit the adhesion |
